Results from patent US20100029710A1, “COMPOUNDS HAVING BOTH ANGIOTENSIN II RECEPTOR ANTAGONISM AND PPARy ACTIVATING ACTIVITIES” (Pfizer Products Inc., priority 2006, published 2010).

What was measured:
[1] = tested on: Spontaneously hypertensive rats (SHR); assay: Blood pressure reduction in vivo assay (radiotelemetry); details: SHR rat, single dose 10 mg/kg p.o.
Method: The rats are surgically implanted with radio-telemetry transmitters to allow capture of conscious, unrestrained systolic and diastolic BP as well as heart rate.
In vivo studies were conducted to show the effectiveness of a compound in reducing blood pressure due to its angiotensin II receptor antagonist activity, and its ability to induce insulin sensitization in a diabetic rat due to its PPARγ agonist activity.
Spontaneously hypertensive rats (SHR) were implanted with radiotelemetry devices capable of measuring blood pressure (BP) via an aortic cannula and transmitting the data to a receiving pad under the cage. Animals were conscious and had access to food and water ad libitum while blood pressure was monitored continuously. Rats were dosed with vehicle and monitored for 24 hours to establish baseline before administering compound and measuring changes in blood pressure for another 24 hours. Changes in blood pressure were calculated over time and compared to vehicle controls.

[2] = target: T1, Human recombinant AT1 receptor (Homo sapiens, UniProt P30556); assay: AT1 receptor radioligand binding (flashplate); details: 125I Sar1,Ile8-Angiotensin II radioligand
T1 construct: purchased
T1 sequence (P30556 1-359): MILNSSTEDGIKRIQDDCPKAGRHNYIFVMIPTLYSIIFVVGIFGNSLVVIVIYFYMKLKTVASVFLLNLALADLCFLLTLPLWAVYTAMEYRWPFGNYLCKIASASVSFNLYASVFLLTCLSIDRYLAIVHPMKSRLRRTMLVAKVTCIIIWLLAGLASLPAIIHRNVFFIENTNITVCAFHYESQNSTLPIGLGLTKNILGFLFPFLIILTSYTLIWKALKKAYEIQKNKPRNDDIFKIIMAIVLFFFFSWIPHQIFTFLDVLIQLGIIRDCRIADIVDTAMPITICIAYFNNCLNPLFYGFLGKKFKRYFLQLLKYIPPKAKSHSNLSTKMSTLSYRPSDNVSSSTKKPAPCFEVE
In short: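 Human recombinant AT1 receptor was coated on flashplates and competed against 125I-Sar1,Ile8-angiotensin II at its Kd concentration for 2 h at room temperature. Compounds were tested from […], with nonspecific binding defined by 10 μM angiotensin II. Ki was derived via Cheng-Prusoff.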

[3] = target: T2, human PPARγ LBD bound to Gal4 DBD (Homo sapiens, UniProt P37231); assay: PPARγ transfection luciferase reporter assay in HepG2 cells; type: cell-based; details: for Emax: HepG2, 24 h, compared to full agonist response (standard TZD full agonist), read-out: PPARγ % activation; for EC50: HepG2, 24 hours exposure
T2 construct: expressed in transfected cells; host or cells: HepG2
T2 sequence (P37231 238-503 limits assumed): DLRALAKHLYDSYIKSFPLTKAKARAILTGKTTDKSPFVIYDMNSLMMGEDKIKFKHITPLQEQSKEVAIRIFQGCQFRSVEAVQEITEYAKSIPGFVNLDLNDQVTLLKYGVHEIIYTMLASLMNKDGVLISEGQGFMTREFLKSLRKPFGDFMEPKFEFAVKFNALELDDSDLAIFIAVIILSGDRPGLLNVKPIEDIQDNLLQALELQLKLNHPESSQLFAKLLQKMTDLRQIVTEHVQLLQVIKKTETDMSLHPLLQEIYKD
In short: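 HepG2 cells transiently co-transfected with Gal4 DBD–PPARγ LBD, luciferase reporter and β-galactosidase, then exposed 24 h to compound (0.1 nM–100 μM). Luciferase/β-gal ratio gives activation. EC50 is relative to each compound's own maximum; efficacy is % of a reference TZD full agonist.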

[4] = tested on: ZDF male rat; assay: Glucose lowering in vivo assay; details: 10 mg/kg p.o. once daily for 28 days; for Difference from Vehicle Control: blood glucose
Description: Homozygous expression of this mutation leads to a phenotype of hyperphagia, obesity, insulin resistance, hyperglycemia, and hypertriglyceridemia resulting in uncontrolled diabetes, β-cell failure, severe nephropathy, and proteinuria by 16 weeks of age.
The hypoglycemic activity of the compounds of this invention can be determined by the amount of test compound that delays or suppresses elevations in glucose levels relative to a vehicle without test compound in male ZDF rats.
Male Zucker Diabetic Fatty (ZDF/Crl-Lepr^fa) rats were obtained from Charles River Laboratories (Wilmington, Mass.). Rats were pair housed under a 12-h light/dark cycle with free access to water and Purina 5008 rat chow (Protein 26.8%, fat 16.7%, carbohydrates 56.5% kcal/vol; Purina Mills, Richmond, Ind.). Prior to the onset of diabetic hyperglycemia (fed blood glucose<200 mg/dl) rats were randomly allocated to groups based on HOMA values. The Homeostasis Model Assessment (HOMA) calculation estimates peripheral insulin resistance from corresponding insulin and glucose measurements. Rats were administered a once daily oral dose for 28 days with suspensions of vehicle alone (1.5% carboxymethyl-cellulose plus 0.2% Tween 20), vehicle plus test compound in the range 0.1-100 mg/kg. At the end of the study, an oral glucose tolerance test (OGTT, 2 g/kg dextrose) was conducted to measure glucose excursion. Tail venipuncture in conscious, 1 hr fasted animals at baseline and weekly thereafter, provided sample for blood glucose, serum insulin, triglycerides, cholesterol, and FFA measurements. Glucose levels were determined with a HemoCue Glucose Monitor (Ryan Diagnostics), insulin was determined by ELISA (Alpco), and lipids were determined by Cobas Mira Analyzer (Roche) and by enzymatic assays (Wako). Lipoprotein cholesterol was determined by FPLC following the method of Kieft et al. (Kieft K A, Bocan T M, Krause B R. Rapid on-line determination of cholesterol distribution among plasma lipoproteins after high-performance gel filtration chromatography. J Lipid Res 1991; 32(5): 859-66). Briefly, plasma was separated on a Superose 6HR 10/30 column (Pharmacia) and cholesterol was then measured in-line utilizing a post-column enzymatic cholesterol assay (Roche). Percent of total area for each lipoprotein fraction were calculated. These percent areas were then multiplied by the total plasma cholesterol concentration, yielding the cholesterol concentration in each fraction. Efficacy was determined by comparison to untreated vehicle controls and reference agents and active compounds selected for further evaluation.

For `CCc1nc2c(C)cc(CC(C)(C)O)nc2n1[C@H]1CCc2cc(-c3ccccc3-c3nnn[nH]3)ccc21` [Example 16, 1-(3-((1S)-5-(2-(1H-tetrazol-5-yl)phenyl)-2,3-dihydro-1H-inden-1-yl)-2-ethyl-7-methyl-3H-imidazo[4,5-b]pyridin-5-yl)-2-methylpropan-2-ol], the Duration of activity [1] was over 20 h, the “Maximal fall in Mean Blood Pressure after single dose of 10 mg/kg p.o. (mmHg)” value (“Maximal fall … of 10 mg/kg p.o. (mmHg)” for short) [1] was −37 mmHg and the IC50 [2] was 2.9 nM. For the same molecule, the Emax [3] was 20%, the EC50 [3] was 250 nM and the “Blood Glucose (1 h Fast) after single daily dose of 10 mg/kg p.o. for 28 days” value (“Blood Glucose … of 10 mg/kg p.o. for 28 days” for short) [4] was 114 mg/dL. The “Difference from Vehicle Control” value [4] was -475 mg/dL.
In the case of `CCc1nc2c(C)cc([C@@H](O)C(C)C)nc2n1[C@H]1CCc2cc(-c3ccccc3-c3nnn[nH]3)ccc21` [Example 10, (S)-1-(3-((1S)-5-(2-(1H-tetrazol-5-yl)phenyl)-2,3-dihydro-1H-inden-1-yl)-2-ethyl-7-methyl-3H-imidazo[4,5-b]pyridin-5-yl)-2-methylpropan-1-ol], the Duration of activity [1] is reported as over 20 h, the “Maximal fall … of 10 mg/kg p.o. (mmHg)” value [1] is reported as −27 mmHg and the IC50 [2] is reported as 1.6 nM. The Emax [3] was 27%, the EC50 [3] was 145 nM and the “Blood Glucose … of 10 mg/kg p.o. for 28 days” value [4] was 239 mg/dL. The “Difference from Vehicle Control” value [4] was -133 mg/dL.
For `CCc1nc2c(C)cc(CCO)nc2n1[C@H]1CCc2cc(-c3ccccc3-c3nnn[nH]3)ccc21` [Example 13a, 2-(3-((1S)-5-(2-(1H-tetrazol-5-yl)phenyl)-2,3-dihydro-1H-inden-1-yl)-2-ethyl-7-methyl-3H-imidazo[4,5-b]pyridin-5-yl)ethanol], the Duration of activity [1] was over 20 h, the “Maximal fall … of 10 mg/kg p.o. (mmHg)” value [1] was −28 mmHg and the IC50 [2] was 4.1 nM. The Emax [3] was 24%, the EC50 [3] was 415 nM and the “Blood Glucose … of 10 mg/kg p.o. for 28 days” value [4] was 112 mg/dL. The “Difference from Vehicle Control” value [4] was -477 mg/dL.
Work on `CCc1nc2c(C)cc(CCC3CC3)nc2n1[C@H]1CCc2cc(-c3ccccc3-c3nnn[nH]3)ccc21` [Example 59, 3-((1S)-5-(2-(1H-tetrazol-5-yl)phenyl)-2,3-dihydro-1H-inden-1-yl)-5-(2-cyclopropylethyl)-2-ethyl-7-methyl-3H-imidazo[4,5-b]pyridine] yielded an IC50 [2] of 2.9 nM, an Emax [3] of 30% and an EC50 [3] of 215 nM.
With `CCc1nc2c(C)cc(CCOC)nc2n1[C@H]1CCc2cc(-c3ccccc3-c3nnn[nH]3)ccc21` [Example 13, 3-((1S)-5-(2-(1H-tetrazol-5-yl)phenyl)-2,3-dihydro-1H-inden-1-yl)-2-ethyl-5-(2-methoxyethyl)-7-methyl-3H-imidazo[4,5-b]pyridine] the Duration of activity [1] was over 20 h, the “Maximal fall … of 10 mg/kg p.o. (mmHg)” value [1] was −46 mmHg and the IC50 [2] was 2.5 nM. For the same molecule, the Emax [3] was 26%, the EC50 [3] was 435 nM and the “Blood Glucose … of 10 mg/kg p.o. for 28 days” value [4] was 120 mg/dL. For the same molecule, the “Difference from Vehicle Control” value [4] was -469 mg/dL.
